Source: article PMC9769694, “Discovery of Two Inhibitors of the Type IV Pilus Assembly ATPase PilB as Potential Antivirulence Compounds” (Microbiology Spectrum, 2022)

Legend:
Settings in all cases: data not shown
[1] = tested on: A. nosocomialis twitching motility; test: Twitching motility, crystal violet stained twitching area; format: cell-based, Acinetobacter nosocomialis
Description: The inhibitors may thus interact with conserved features of the PilB ATPase family. A. nosocomialis PilB ([19]), whose N terminus is not similar to the MshEN domain (data not shown), shares ~53% identity and ~74% homology with MxPilB and MC3PilB in the ATPase domain (Fig. S1). We analyzed whether benserazide and levodopa could impact the T4P-powered twitching motility ([19], [44]) of A. nosocomialis (Fig. 7), an opportunistic pathogen in the Acinetobacter calcoaceticus-Acinetobacter baumannii (ACB) complex ([45]). As shown in Fig. 7A and B and Fig. S7, benserazide and levodopa impede the twitching motility of WT A. nosocomialis in a concentration-dependent manner.
FIG 7 Benserazide and levodopa inhibit Acinetobacter nosocomialis twitching motility and biofilm formation. (A and B) Twitching motility is correlated with the twitching area (cm^2) of the A. nosocomialis wild-type (WT) strain in the presence of (A) benserazide or (B) levodopa, with the control (no inhibitor) normalized to 1. Data are from 3 independent experiments, each performed in triplicates and represented by dots of the same color. (C and D) Biofilms formed by A. nosocomialis with (C) benserazide or (D) levodopa were analyzed by a microplate assay with crystal violet (CV) staining. Results from three independent experiments, each performed in quadruplicates and represented by dots of the same color, are shown. Horizontal lines indicate overall averages, and asterisks (*) signify that values at the indicated concentration are statistically different from those of the control (P < 0.05).
The A. nosocomialis wild-type M2 strain and an isogenic pilA deletion (ΔpilA) mutant ([19], [46]) were used in this study. They were grown and maintained using MacConkey medium at 37°C. The twitching motility of the M2 strain of A. nosocomialis was analyzed with 1% crystal violet (CV) for staining, and twitching areas were used as measures of motility as previously described ([46]). These motility assays were conducted in triplicates and the stained area of the ΔpilA mutant was subtracted from that of the WT for data analysis. A. nosocomialis biofilm formation was analyzed using microplates and CV staining as previously described ([53], [54]). The biofilm assays were conducted in quadruplicate in MacConkey medium with tissue culture-treated microtiter plates (Falcon). CV absorbance (Acv) was measured at 590 nm using Infinite M200 PRO in clear polystyrene 96-well microplates (ExtraGene). Absorbance for each well was read 16 times using Multiple Reads with the average as the final Acv value. Readings from control wells without bacteria were subtracted for normalization. Statistical differences were determined using a Student’s t test.

CtPilB = CtPilB (Chloracidobacterium thermophilum, UniProt G2LDI3); test: Malachite green ATPase assay, dose response (benchtop); format: biochemical
Description: The full-length CtPilB and the CtPilBΔN variant (with the first 139 residues at the N terminus truncated) were purified as preciously described ([29]). The HTS was conducted using 384-well microplates (Greiner, cat no. 781101). Each microwell for the screen contained a 15-μL reaction mixture consisting of 75 nM CtPilB, 0.5 mM ATP, 20 μM of a library compound, and 2% DMSO in activity buffer (50 mM N-tris(hydroxymethyl)methyl-3-aminopropanesulfonic acid [TAPS], 50 mM Tris, 75 mM KCl, 50 mM sodium acetate, 5 mM MgCl2, 50 mM ZnCl2 [pH 8.7]) ([29]). Reaction mixtures were incubated at 55°C for 10 min and transferred to ice for 5 min to stop the enzymatic reaction. MG reagent (50 μL) was added to each well for color development. After a 15-minute incubation, 5 μL of 34% (wt/vol) sodium-citrate (MP Chemicals) was added and the plate was mixed by shaking ([28], [29]). Absorbance at 620 nm (A620) was measured using a SpectraMax M5 microplate reader at room temperature. The HTS was performed at the Virginia Tech Center for Drug Discovery (VTCDD) Screening Laboratory.
The effects of inhibitors on the ATPase activity of CtPilB and CtPilBΔN and the binding of MANT-ATP were determined as described previously ([28], [29]). Stock solutions were prepared by dissolving benserazide hydrochloride (Alfa Aesar) or levodopa (Spectrum Chemical Mfg. Corp.) in dimethyl sulfoxide (DMSO; Fisher Biotech). Next, 10× working stocks for given concentrations of an inhibitor were freshly prepared before their use in an experiment. GraphPad Prism v7.04 was used for curve fitting and Student’s t test was used for statistical analysis.

M. xanthus S motility = test: T4P-mediated social (S) motility, colony expansion on soft agar; format: cell-based, Myxococcus xanthus
Description: Benserazide and levodopa were examined to determine whether they could impact the T4P assembly function of PilB in vivo using M. xanthus as the model bacterium ([28]). […] Three M. xanthus strains were used for these experiments. Strain DK10416 lacks S motility because it is a pilB deletion (ΔpilB) mutant ([40]). The other two strains both assemble T4P and are proficient in S motility ([30]). Strain YZ1674 produces the wild-type (WT) M. xanthus PilB (MxPilB). YZ2232 expresses MC3PilB, a PilB chimera with the N terminus of MxPilB fused to the C-terminal ATPase domain of CtPilB ([30]). The PilB ATPase domains of MxPilB and MC3PilB are highly similar, with 66% shared identity and 77% similarity (Fig. S1).
FIG 5 Benserazide and levodopa inhibit T4P-mediated social (S) motility in Myxococcus xanthus. Expansion rates (cm/day) of the MxPilB (YZ1674) and the MC3PilB (YZ2232) strains on soft agar plates by S motility in the presence of (A and C) benserazide and (B and D) levodopa after 5 days of incubation. Results from three independent experiments are shown, each performed in quintuplicates with data points represented by dots of the same color. Horizontal black lines represent overall averages. Expansion rates were normalized by subtracting that of the ΔpilB strain, which has no S motility (also see Fig. S4). Asterisks (*) indicate that the values at the indicated concentrations are statistically different (P < 0.05) from those of the no-inhibitor control.
M. xanthus was grown and maintained at 32°C in Casitone-yeast extract (CYE) medium ([49]). Motility assays were conducted with strains DK10416 (ΔpilB) ([40]), YZ1674 (ΔpilB att::MxpilB) ([50]), and YZ2232 (ΔpilB att::MC3pilB) ([30], [51]) as previously described ([28]). One modification was that 10% India ink was included in the cell suspension to mark the initial spot on agar plates. All experiments were conducted in quintuplicates and the diameter of the initial spot, as marked by India ink, was subtracted for data analysis.

Chain of CtPilB (G2LDI3 entry or part of it): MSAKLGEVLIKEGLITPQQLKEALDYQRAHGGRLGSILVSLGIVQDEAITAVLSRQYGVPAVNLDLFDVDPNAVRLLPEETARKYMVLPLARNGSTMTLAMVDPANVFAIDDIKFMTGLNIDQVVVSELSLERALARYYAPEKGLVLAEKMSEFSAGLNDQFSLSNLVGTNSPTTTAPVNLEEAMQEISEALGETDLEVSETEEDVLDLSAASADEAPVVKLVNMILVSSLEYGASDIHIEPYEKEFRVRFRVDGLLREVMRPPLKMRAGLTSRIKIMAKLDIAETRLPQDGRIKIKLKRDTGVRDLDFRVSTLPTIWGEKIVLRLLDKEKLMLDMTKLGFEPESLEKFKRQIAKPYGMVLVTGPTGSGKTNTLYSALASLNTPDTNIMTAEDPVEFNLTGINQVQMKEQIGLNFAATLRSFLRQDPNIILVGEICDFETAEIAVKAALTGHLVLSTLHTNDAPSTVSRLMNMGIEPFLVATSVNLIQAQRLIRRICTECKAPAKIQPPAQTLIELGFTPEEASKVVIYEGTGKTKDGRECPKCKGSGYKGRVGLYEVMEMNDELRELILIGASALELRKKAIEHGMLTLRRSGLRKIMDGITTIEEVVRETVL

N[C@@H](Cc1ccccc1)C(=O)O [phenylalanine]
no inhibitory effect: inhibitory effect on motility of A. nosocomialis in vivo [1] | inhibitory effect on CtPilB in vitro (CtPilB) | inhibitory effect on motility of M. xanthus in vivo (M. xanthus S motility)

N[C@@H](Cc1ccc(O)cc1)C(=O)O [tyrosine, 4-monohydroxyphenylalanine]
no inhibitory effect: inhibitory effect on motility of A. nosocomialis in vivo [1] | inhibitory effect on CtPilB in vitro (CtPilB) | inhibitory effect on motility of M. xanthus in vivo (M. xanthus S motility)
